Test results from patent US6525001B1, “Substituted pyrimidine and pyridine herbicides” (Mid-American Commercialization Corporation, priority 1997, dated 2003).

Assays:
Format in all cases: in vivo
Design in all cases: key: 0 is no effect; 10 is complete control
[1] = tested on: momingglory (Ipomoea hederacea); assay: Test B pre-/postemergence
Excerpt: (§1) Seeds of bedstraw (Galium aparine), blackgrass (Alopecurus myosuroides), broadleaf signalgrass (Brachiaria decumbens), cocklebur (Xanthium strumarium), corn (Zea mays), crabgrass (Digitaria sanguinalis), giant foxtail (Setaria faberii), lambsquarters (Chenopodium album), momingglory (Ipomoea hederacea), pigweed (Amaranthus retroflexus), rape (Brassica napus), soybean (Glycine max), sugar beet (Beta vulgaris), velvetleaf (Abutilon theophrasti), wheat (Triticum aestivum), wild oat (Avena fatua) and purple nutsedge (Cyperus rotundus) tubers were planted and treated preemergence with test chemicals formulated in a non-phytotoxic solvent mixture which included a surfactant.
(§2) At the same time, these crop and weed species were also treated with postemergence applications of test chemicals formulated in the same manner. Plants ranged in height from 2 to 18 cm (1- to 4-leaf stage) for postemergence treatments. Plant species in the flood test consisted of rice (Oryza sativa), smallflower flatsedge (Cyperus difformis), duck salad (Heteranthera limosa) and bamyardgrass (Echinochloa crus-galli) grown to the 2-leaf stage for testing. Treated plants and controls were maintained in a greenhouse for twelve to sixteen days, after which all species were compared to controls and visually evaluated. Plant response ratings, summarized in Table B, are based on a scale of 0 to 10 where 0 is no effect and 10 is complete control. A dash (−) response means no test result.

[2] = tested on: broadleaf signalgrass (Brachiaria decumbens); assay: Test B pre-/postemergence; conditions: for B. signalgrass plant response rating: Preemergence
Excerpt: as §1, §2

[3] = tested on: pigweed (Amaranthus retroflexus); assay: Test B pre-/postemergence
Excerpt: as §1, §2

wild oat (Avena fatua) = assay: Test B pre-/postemergence
Excerpt: as §1, §2

[4] = tested on: purple nutsedge (Cyperus rotundus); assay: Test B pre-/postemergence
Excerpt: as §1, §2

[5] = tested on: cocklebur (Xanthium strumarium); assay: Test B pre-/postemergence; conditions: for Cocklebur plant response rating: Preemergence
Excerpt: as §1, §2

soybean (Glycine max) = assay: Test B pre-/postemergence
Excerpt: as §1, §2

[6] = tested on: sugar beet (Beta vulgaris); assay: Test B pre-/postemergence
Excerpt: as §1, §2

[7] = tested on: wheat (Triticum aestivum); assay: Test B pre-/postemergence
Excerpt: as §1, §2

[8] = tested on: crabgrass (Digitaria sanguinalis); assay: Test B pre-/postemergence; conditions: for Crabgrass plant response rating: Preemergence
Excerpt: as §1, §2

[9] = tested on: bedstraw (Galium aparine); assay: Test B pre-/postemergence; conditions: for Bedstraw plant response rating: Preemergence
Excerpt: as §1, §2

[10] = tested on: velvetleaf (Abutilon theophrasti); assay: Test B pre-/postemergence
Excerpt: as §1, §2

[11] = tested on: blackgrass (Alopecurus myosuroides); assay: Test B pre-/postemergence; conditions: for Blackgrass plant response rating: Preemergence
Excerpt: as §1, §2

[12] = tested on: giant foxtail (Setaria faberii); assay: Test B pre-/postemergence
Excerpt: as §1, §2

rape (Brassica napus) = assay: Test B pre-/postemergence
Excerpt: as §1, §2

corn (Zea mays) = assay: Test B pre-/postemergence; conditions: for Corn plant response rating: Preemergence
Excerpt: as §1, §2

rice (Oryza sativa) = assay: Test B flood test
How it was run: (§3)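 Each value is a visual injury score relative to controls, with 10 meaning complete control and 0 no effect. Evaluation took place twelve to sixteen days after the 2-leaf-stage plants were treated and kept in the greenhouse.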

[13] = tested on: bamyardgrass (Echinochloa crus-galli); assay: Test B flood test
How it was run: as §3

[14] = tested on: smallflower flatsedge (Cyperus difformis); assay: Test B flood test
How it was run: as §3

[15] = tested on: duck salad (Heteranthera limosa); assay: Test B flood test
How it was run: as §3

[16] = Rate 250 g/ha, Postemergence (so in the source)
[17] = Rate 62 g/ha, Postemergence (flood test)
[18] = Rate 125 g/ha, Postemergence section (flood test species)
[19] = Rate 250 g/ha, Postemergence (flood test species)
[20] = Rate 125 g/ha, Postemergence, flood test

## Cc1cnc(-c2ccc(F)cc2F)nc1Cc1cccc(C#N)c1 [Compound 34]
[1]; Rate 62 g/ha, Postemergence
  Plant response rating, Morningglory: 1
[1]; Rate 62 g/ha, Preemergence
  Morningglory plant response rating: 0
[1]; Rate 125 g/ha, Postemergence
  Morningglory plant response rating: 1
[1]; Rate 125 g/ha, Preemergence
  Morningglory plant response rating: 0
[1]; Rate 250 g/ha, Postemergence
  Plant response rating, Morningglory: 2
[1]; [16]
  Plant response rating, Morningglory: 0
[2]; Rate 62 g/ha, Postemergence
  Plant response rating, B. signalgrass: 1
[2]; Rate 62 g/ha
  B. signalgrass plant response rating: 0
[2]; Rate 125 g/ha, Postemergence
  Plant response rating, B. signalgrass: 1
[2]; Rate 125 g/ha
  B. signalgrass plant response rating: 0
[2]; Rate 250 g/ha, Postemergence
  Plant response rating, B. signalgrass: 1
[2]; Rate 250 g/ha, Postemergence as printed in head r139 (second section for compounds 26-50)
  Plant response rating, B. signalgrass: 1
[3]; Rate 62 g/ha, Postemergence
  Plant response rating, Redroot pigweed: 1
[3]; Rate 62 g/ha, Preemergence
  Redroot pigweed plant response rating: 0
[3]; Rate 125 g/ha, Postemergence
  Redroot pigweed plant response rating: 3
[3]; Rate 125 g/ha, Preemergence
  Redroot pigweed plant response rating: 0
[3]; Rate 250 g/ha, Postemergence
  Plant response rating, Redroot pigweed: 6
[3]; [16]
  Plant response rating, Redroot pigweed: 2
Wild oat (Avena fatua); Rate 62 g/ha, Postemergence
  Wild oats plant response rating: 0
Wild oat (Avena fatua); Rate 62 g/ha, Preemergence
  Wild oats plant response rating: 0
Wild oat (Avena fatua); Rate 125 g/ha, Postemergence
  Wild oats plant response rating: 1
Wild oat (Avena fatua); Rate 125 g/ha, Preemergence
  Plant response rating, Wild oats: 0
Wild oat (Avena fatua); Rate 250 g/ha, Postemergence
  Plant response rating, Wild oats: 2
Wild oat (Avena fatua); [16]
  Plant response rating, Wild oats: 0
[4]; Rate 62 g/ha, Postemergence
  Plant response rating, Nutsedge: 0
[4]; Rate 62 g/ha, Preemergence
  Nutsedge plant response rating: 0
[4]; Rate 125 g/ha, Postemergence
  Nutsedge plant response rating: 0
[4]; Rate 125 g/ha, Preemergence
  Nutsedge plant response rating: 0
[4]; Rate 250 g/ha, Postemergence
  Plant response rating, Nutsedge: 0
[4]; [16]
  Plant response rating, Nutsedge: 0
[5]; Rate 62 g/ha, Postemergence
  Plant response rating, Cocklebur: 2
[5]; Rate 62 g/ha
  Cocklebur plant response rating: 0
[5]; Rate 125 g/ha, Postemergence
  Plant response rating, Cocklebur: 2
[5]; Rate 125 g/ha
  Cocklebur plant response rating: 0
[5]; Rate 250 g/ha, Postemergence
  Plant response rating, Cocklebur: 8
[5]; [16]
  Plant response rating, Cocklebur: 0
Soybean (Glycine max); Rate 62 g/ha, Postemergence
  Plant response rating, Soybean: 1
Soybean (Glycine max); Rate 62 g/ha, Preemergence
  Soybean plant response rating: 0
Soybean (Glycine max); Rate 125 g/ha, Postemergence
  Soybean plant response rating: 2
Soybean (Glycine max); Rate 125 g/ha, Preemergence
  Plant response rating, Soybean: 0
Soybean (Glycine max); Rate 250 g/ha, Postemergence
  Plant response rating, Soybean: 2
Soybean (Glycine max); [16]
  Plant response rating, Soybean: 0
[6]; Rate 62 g/ha, Postemergence
  Plant response rating, Sugarbeets: 8
[6]; Rate 62 g/ha, Preemergence
  Sugarbeets plant response rating: 0
[6]; Rate 125 g/ha, Postemergence
  Sugarbeets plant response rating: 8
[6]; Rate 125 g/ha, Preemergence
  Plant response rating, Sugarbeets: 0
[6]; Rate 250 g/ha, Postemergence
  Plant response rating, Sugarbeets: 9
[6]; [16]
  Plant response rating, Sugarbeets: 0
[7]; Rate 62 g/ha, Postemergence
  Wheat plant response rating: 0
[7]; Rate 62 g/ha, Preemergence
  Wheat plant response rating: 0
[7]; Rate 125 g/ha, Postemergence
  Wheat plant response rating: 1
[7]; Rate 125 g/ha, Preemergence
  Plant response rating, Wheat: 0
[7]; Rate 250 g/ha, Postemergence
  Plant response rating, Wheat: 1
[7]; [16]
  Plant response rating, Wheat: 0
[8]; Rate 62 g/ha, Postemergence
  Plant response rating, Crabgrass: 0
[8]; Rate 62 g/ha
  Crabgrass plant response rating: 0
[8]; Rate 125 g/ha, Postemergence
  Plant response rating, Crabgrass: 1
[8]; Rate 125 g/ha
  Crabgrass plant response rating: 0
[8]; Rate 250 g/ha, Postemergence
  Plant response rating, Crabgrass: 1
[8]; [16]
  Plant response rating, Crabgrass: 1
[9]; Rate 62 g/ha, Postemergence
  Plant response rating, Bedstraw: 2
[9]; Rate 62 g/ha
  Bedstraw plant response rating: 0
[9]; Rate 125 g/ha, Postemergence
  Plant response rating, Bedstraw: 3
[9]; Rate 125 g/ha
  Bedstraw plant response rating: 0
[9]; Rate 250 g/ha, Postemergence
  Plant response rating, Bedstraw: 7
[9]; [16]
  Plant response rating, Bedstraw: 0
[10]; Rate 62 g/ha, Postemergence
  Plant response rating, Velvetleaf: 1
[10]; Rate 62 g/ha, Preemergence
  Velvetleaf plant response rating: 0
[10]; Rate 125 g/ha, Postemergence
  Velvetleaf plant response rating: 1
[10]; Rate 125 g/ha, Preemergence
  Plant response rating, Velvetleaf: 0
[10]; Rate 250 g/ha, Postemergence
  Plant response rating, Velvetleaf: 1
[10]; [16]
  Plant response rating, Velvetleaf: 0
[11]; Rate 62 g/ha, Postemergence
  Plant response rating, Blackgrass: 0
[11]; Rate 62 g/ha
  Blackgrass plant response rating: 0
[11]; Rate 125 g/ha, Postemergence
  Plant response rating, Blackgrass: 1
[11]; Rate 125 g/ha
  Blackgrass plant response rating: 0
[11]; Rate 250 g/ha, Postemergence
  Plant response rating, Blackgrass: 1
[11]; [16]
  Plant response rating, Blackgrass: 0
[12]; Rate 62 g/ha, Postemergence
  Plant response rating, Giant foxtail: 0
[12]; Rate 62 g/ha, Preemergence
  Giant foxtail plant response rating: 0
[12]; Rate 125 g/ha, Postemergence
  Giant foxtail plant response rating: 1
[12]; Rate 125 g/ha, Preemergence
  Giant foxtail plant response rating: 0
[12]; Rate 250 g/ha, Postemergence
  Plant response rating, Giant foxtail: 1
[12]; [16]
  Plant response rating, Giant foxtail: 1
Rape (Brassica napus); Rate 62 g/ha, Postemergence
  Plant response rating, Rape: 2
Rape (Brassica napus); Rate 62 g/ha, Preemergence
  Rape plant response rating: 0
Rape (Brassica napus); Rate 125 g/ha, Postemergence
  Rape plant response rating: 3
Rape (Brassica napus); Rate 125 g/ha, Preemergence
  Rape plant response rating: 0
Rape (Brassica napus); Rate 250 g/ha, Postemergence
  Plant response rating, Rape: 3
Rape (Brassica napus); [16]
  Plant response rating, Rape: 0
Corn (Zea mays); Rate 62 g/ha, Postemergence
  Plant response rating, Corn: 1
Corn (Zea mays); Rate 62 g/ha
  Corn plant response rating: 0
Corn (Zea mays); Rate 125 g/ha, Postemergence
  Plant response rating, Corn: 1
Corn (Zea mays); Rate 125 g/ha
  Corn plant response rating: 0
Corn (Zea mays); Rate 250 g/ha, Postemergence
  Plant response rating, Corn: 1
Corn (Zea mays); [16]
  Plant response rating, Corn: 0
Rice (Oryza sativa); [17]
  Plant response rating, Rice: 1
Rice (Oryza sativa); [18]
  Rice plant response rating: 1
Rice (Oryza sativa); [19]
  Plant response rating, Rice: 1
[13]; [17]
  Plant response rating, Barnyardgrass: 0
[13]; [20]
  Plant response rating, Barnyardgrass: 0
[13]; [19]
  Plant response rating, Barnyardgrass: 1
[14]; [17]
  Plant response rating, S. Flatsedge: 2
[14]; [18]
  S. Flatsedge plant response rating: 2
[14]; [19]
  Plant response rating, S. Flatsedge: 3
[15]; [17]
  Plant response rating, Ducksalad: 0
[15]; [20]
  Plant response rating, Ducksalad: 0
[15]; [19]
  Plant response rating, Ducksalad: 0
